From patent US10392368B2, “Pyrazolo and triazolo bicyclic compounds as JAK kinase inhibitors” (THERAVANCE BIOPHARMA R&D IP, LLC, priority 2017, dated 2019)
Where two headings read alike, the source gives them in different places.

Experiments:
[1] = test system: IL-2 stimulated pSTAT5 in Tall-1 T cells; test: Cellular JAK3 potency assay: inhibition of IL-2 stimulated pSTAT5 in Tall-1 T cells; assay type: cell-based, human; conditions: for IC50: Homo sapiens, read-out: Tall-1 (pIC50) (converted)
Procedure, shortened: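 Inhibition of IL-2-induced pSTAT5 was quantified by AlphaLisa in Tall-1 cell lysates. Compound exposure lasted 1 h before 30 min stimulation with 300 ng/ml IL-2 final.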

[2] = molecular target: T1, JAK1 (Homo sapiens, UniProt P23458); test: Biochemical JAK1 kinase assay (LanthaScreen); conditions: for Ki: read-out: JAK 1 (pKi) (converted)
T1 construct: GST; purchased Life Technologies
T1 sequence (P23458 whole entry): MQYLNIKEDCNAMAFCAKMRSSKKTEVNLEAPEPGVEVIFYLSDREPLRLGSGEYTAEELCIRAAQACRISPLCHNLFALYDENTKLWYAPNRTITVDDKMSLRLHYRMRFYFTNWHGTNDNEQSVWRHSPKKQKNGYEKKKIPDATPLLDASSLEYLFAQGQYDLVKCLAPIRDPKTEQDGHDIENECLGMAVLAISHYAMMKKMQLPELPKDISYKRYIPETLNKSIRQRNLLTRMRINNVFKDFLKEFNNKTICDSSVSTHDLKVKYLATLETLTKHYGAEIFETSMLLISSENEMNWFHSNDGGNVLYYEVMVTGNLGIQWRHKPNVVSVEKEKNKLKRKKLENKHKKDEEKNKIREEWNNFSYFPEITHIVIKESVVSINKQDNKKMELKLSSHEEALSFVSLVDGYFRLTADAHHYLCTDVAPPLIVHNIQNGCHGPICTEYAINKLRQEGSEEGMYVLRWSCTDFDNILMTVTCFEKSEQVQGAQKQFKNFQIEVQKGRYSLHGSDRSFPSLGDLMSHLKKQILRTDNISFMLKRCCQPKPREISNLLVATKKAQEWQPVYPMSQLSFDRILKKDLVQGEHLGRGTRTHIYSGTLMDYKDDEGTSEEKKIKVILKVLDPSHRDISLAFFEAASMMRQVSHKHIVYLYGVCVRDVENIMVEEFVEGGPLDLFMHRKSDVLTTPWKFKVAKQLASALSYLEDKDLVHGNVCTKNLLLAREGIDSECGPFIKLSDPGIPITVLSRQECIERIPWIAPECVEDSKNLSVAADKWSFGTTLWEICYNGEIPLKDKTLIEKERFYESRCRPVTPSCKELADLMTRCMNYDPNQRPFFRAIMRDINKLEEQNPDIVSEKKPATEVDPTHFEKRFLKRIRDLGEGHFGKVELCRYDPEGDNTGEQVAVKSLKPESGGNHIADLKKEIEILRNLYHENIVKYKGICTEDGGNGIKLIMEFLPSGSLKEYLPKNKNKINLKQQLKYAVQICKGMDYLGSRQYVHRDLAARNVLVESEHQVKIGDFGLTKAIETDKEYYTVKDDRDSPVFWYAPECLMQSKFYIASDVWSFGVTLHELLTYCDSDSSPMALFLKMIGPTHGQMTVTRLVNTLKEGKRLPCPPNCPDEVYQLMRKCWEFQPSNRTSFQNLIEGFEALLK
Procedure, shortened: (§1)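 Recombinant GST-tagged JAK enzymes with GFP-STAT1 peptide substrate in 50 mM HEPES pH 7.5, 10 mM MgCl2, 1 mM EGTA, 0.01% Brij-35; compounds pre-incubated 1 h, then ATP added, 1 h reaction at ambient temperature. TR-FRET (Tb-anti-pSTAT1 pTyr701, 520/495 nm) after EDTA stop; IC50 by 4-parameter fit, converted to pKi via Cheng-Prusoff.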

[3] = molecular target: T2, JAK2 (Homo sapiens, UniProt O60674); test: Biochemical JAK2 kinase assay (LanthaScreen); conditions: for Ki: read-out: JAK 2 (pKi) (converted)
T2 construct: GST; purchased Life Technologies
T2 sequence (O60674 whole entry): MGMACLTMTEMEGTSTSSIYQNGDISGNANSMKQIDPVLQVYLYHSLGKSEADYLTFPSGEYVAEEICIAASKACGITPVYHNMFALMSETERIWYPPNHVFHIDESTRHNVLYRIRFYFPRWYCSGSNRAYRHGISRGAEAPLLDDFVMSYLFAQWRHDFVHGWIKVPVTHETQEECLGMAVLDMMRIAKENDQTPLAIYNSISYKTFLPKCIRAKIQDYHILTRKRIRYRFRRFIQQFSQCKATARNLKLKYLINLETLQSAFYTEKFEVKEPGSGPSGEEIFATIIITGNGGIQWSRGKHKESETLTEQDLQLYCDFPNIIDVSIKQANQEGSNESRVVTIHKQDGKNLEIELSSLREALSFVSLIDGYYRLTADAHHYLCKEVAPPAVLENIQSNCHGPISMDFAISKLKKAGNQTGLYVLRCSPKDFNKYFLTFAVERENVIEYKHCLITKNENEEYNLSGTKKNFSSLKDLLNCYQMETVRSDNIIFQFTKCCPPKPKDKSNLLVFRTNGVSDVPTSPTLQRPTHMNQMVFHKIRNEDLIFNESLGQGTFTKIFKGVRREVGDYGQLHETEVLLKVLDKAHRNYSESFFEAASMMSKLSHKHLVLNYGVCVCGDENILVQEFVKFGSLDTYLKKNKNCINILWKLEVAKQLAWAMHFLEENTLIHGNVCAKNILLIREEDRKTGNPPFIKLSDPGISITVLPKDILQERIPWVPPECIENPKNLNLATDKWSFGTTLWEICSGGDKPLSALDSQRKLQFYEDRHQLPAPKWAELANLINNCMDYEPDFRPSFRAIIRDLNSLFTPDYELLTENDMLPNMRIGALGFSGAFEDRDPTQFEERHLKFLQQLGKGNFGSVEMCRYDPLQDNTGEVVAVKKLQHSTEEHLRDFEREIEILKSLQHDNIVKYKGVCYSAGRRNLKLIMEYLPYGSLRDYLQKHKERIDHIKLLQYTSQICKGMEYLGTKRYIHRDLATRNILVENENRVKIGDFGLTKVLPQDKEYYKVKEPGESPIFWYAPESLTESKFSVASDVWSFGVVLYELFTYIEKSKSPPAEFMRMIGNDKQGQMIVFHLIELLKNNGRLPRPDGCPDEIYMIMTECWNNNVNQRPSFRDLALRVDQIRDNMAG
Procedure, shortened: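 pKi values derive from pIC50 via Cheng-Prusoff, with IC50 from a 4-parameter fit of percent-inhibition TR-FRET data using Tb-anti-pSTAT1 (pTyr701) detection. Compound, GST-JAK2 and GFP-STAT1 substrate were pre-incubated 1 h, then ATP started a 1 h ambient reaction (HEPES pH 7.5, 10 mM MgCl2, 1% DMSO).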

[4] = molecular target: T3, Tyk2 (Homo sapiens, UniProt P29597); test: Biochemical Tyk2 kinase assay (LanthaScreen); conditions: for Ki: read-out: Tyk 2 (pKi) (converted)
T3 construct: GST; purchased Life Technologies
T3 sequence (P29597 whole entry): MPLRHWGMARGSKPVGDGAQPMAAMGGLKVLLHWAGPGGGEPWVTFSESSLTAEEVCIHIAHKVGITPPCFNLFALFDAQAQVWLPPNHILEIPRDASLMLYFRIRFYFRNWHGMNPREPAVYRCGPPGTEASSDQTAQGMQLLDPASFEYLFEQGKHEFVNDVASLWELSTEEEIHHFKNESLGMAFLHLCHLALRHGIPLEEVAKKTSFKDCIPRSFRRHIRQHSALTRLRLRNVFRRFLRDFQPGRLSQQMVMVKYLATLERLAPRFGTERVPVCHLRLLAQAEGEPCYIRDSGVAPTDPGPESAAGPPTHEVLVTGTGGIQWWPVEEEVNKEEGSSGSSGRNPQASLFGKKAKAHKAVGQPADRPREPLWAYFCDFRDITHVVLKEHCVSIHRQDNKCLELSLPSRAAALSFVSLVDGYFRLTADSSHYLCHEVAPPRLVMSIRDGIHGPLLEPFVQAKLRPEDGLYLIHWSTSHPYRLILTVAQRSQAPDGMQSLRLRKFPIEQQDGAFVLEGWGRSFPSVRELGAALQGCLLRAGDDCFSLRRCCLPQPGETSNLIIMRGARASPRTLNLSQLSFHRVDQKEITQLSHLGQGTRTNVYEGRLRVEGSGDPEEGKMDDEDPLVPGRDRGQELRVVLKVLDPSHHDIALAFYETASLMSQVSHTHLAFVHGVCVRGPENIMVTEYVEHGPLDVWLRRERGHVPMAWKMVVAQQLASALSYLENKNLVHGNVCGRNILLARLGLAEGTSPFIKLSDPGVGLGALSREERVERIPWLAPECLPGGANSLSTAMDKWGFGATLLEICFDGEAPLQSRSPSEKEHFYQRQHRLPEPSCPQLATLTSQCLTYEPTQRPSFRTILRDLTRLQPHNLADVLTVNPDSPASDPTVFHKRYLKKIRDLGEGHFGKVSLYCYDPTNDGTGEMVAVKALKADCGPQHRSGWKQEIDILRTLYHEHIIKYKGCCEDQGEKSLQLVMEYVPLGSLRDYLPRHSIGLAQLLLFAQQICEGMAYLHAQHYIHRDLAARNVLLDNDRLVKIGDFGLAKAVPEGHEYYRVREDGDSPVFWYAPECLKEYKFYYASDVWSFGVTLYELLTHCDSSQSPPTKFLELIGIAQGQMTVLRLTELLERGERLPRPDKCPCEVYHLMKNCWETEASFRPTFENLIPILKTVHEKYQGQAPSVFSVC
Procedure, shortened: as §1

[5] = molecular target: T4, JAK3 (Homo sapiens, UniProt P52333); test: Biochemical JAK3 kinase assay (LanthaScreen); parameters: GST; purchased Life Technologies; conditions: for Ki: read-out: JAK 3 (pKi) (converted)
T4 sequence (P52333 1-1124): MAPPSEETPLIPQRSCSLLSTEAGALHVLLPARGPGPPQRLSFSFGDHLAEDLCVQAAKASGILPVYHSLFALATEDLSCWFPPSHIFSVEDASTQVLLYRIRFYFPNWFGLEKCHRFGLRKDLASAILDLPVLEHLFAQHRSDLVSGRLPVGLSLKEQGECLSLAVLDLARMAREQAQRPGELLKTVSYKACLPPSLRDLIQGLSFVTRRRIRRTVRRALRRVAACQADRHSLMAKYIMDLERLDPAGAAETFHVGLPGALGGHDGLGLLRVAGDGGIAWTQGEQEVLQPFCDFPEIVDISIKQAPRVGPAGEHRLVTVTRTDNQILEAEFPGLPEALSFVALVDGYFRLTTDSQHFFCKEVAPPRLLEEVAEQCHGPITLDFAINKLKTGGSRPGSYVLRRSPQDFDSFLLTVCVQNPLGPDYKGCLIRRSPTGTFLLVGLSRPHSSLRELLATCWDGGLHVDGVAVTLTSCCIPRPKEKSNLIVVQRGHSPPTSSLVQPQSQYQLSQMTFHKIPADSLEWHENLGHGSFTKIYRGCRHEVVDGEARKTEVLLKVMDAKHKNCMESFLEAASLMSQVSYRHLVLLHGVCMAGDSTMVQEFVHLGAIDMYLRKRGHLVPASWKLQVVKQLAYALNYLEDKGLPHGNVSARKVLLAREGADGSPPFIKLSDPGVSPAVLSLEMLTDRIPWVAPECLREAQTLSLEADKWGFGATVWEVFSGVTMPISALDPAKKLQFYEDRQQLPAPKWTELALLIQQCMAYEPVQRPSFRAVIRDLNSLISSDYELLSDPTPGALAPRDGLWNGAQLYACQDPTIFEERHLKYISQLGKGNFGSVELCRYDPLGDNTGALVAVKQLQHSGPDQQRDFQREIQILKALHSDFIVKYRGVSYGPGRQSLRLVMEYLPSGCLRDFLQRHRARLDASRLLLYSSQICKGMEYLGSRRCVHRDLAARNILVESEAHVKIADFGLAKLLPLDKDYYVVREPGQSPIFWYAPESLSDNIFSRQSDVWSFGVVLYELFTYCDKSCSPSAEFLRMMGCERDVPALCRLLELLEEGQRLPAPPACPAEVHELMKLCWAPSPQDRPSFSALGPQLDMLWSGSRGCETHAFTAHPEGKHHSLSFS
Procedure, shortened: as §1

[6] = IL-2 stimulated pSTAT5 in Tall-1 T cells
[7] = selectivity: difference of pKi JAK3 and pKi JAK1
[8] = IL-2 stimulated pSTAT5, Tall-1 T cells
[9] = selectivity JAK3 over JAK1, difference of pKi
[10] = TALL-1, IL-2 stimulated pSTAT5 in Tall-1 T cells
[11] = TALL-1, IL-2 stimulated pSTAT5, Tall-1 T cells

SMILES | Tall-1 (pIC50) [1, 6] | JAK 1 (pKi) [2] | JAK 2 (pKi) [3] | Tyk 2 (pKi) [4] | JAK 3 (pKi) [5] | JAK3 (pKi)-JAK1 (pKi) [5, 7] | Tall-1 (pIC50) [1, 8] | JAK3 (pKi)-JAK1 (pKi) [5, 9] | IC50 [1, 10] [nM] | Ki [2] [nM] | Ki [3] [nM] | Ki [4] [nM] | Ki [5] [nM] | IC50 [1, 11] [nM]
CC1C(COc2cc(-c3ccc(O)cc3)cc3[nH]ncc23)CN1C(=O)/C=C/CN(C)C (stereo not drawn) [Compound 3-30] | B (a pIC50 value between 6.7 (included) and 7.5 (IC50 between 200 nM and 32 nM)) | E (a pKi value of 7 or below (Ki of 100 nM or above)) | D (a pKi value between 7 and 8 (Ki between 100 nM and 10 nM)) | E (a pKi value of 7 or below (Ki of 100 nM or above)) | A (a pKi value≥10 (Ki≤0.1 nM)) | A (a value of 3 or above) | – | – | – | – | – | – | – | –
C=CC(=O)N1CC[C@H](COc2cc(-c3ccc(O)c(Cl)c3)cc3[nH]ncc23)C1 [Compound 2-3] | B (a pIC50 value between 6.7 (included) and 7.5 (IC50 between 200 nM and 32 nM)) | E (a pKi value of 7 or below (Ki of 100 nM or above)) | D (a pKi value between 7 and 8 (Ki between 100 nM and 10 nM)) | E (a pKi value of 7 or below (Ki of 100 nM or above)) | B (a pKi value between 9 and 10 (Ki between 1 nM and 0.1 nM)) | A (a value of 3 or above) | – | – | – | – | – | – | – | –
C=CC(=O)N1CC[C@@H](Oc2nc(-c3ccc(O)cc3)nc3[nH]ncc23)C[C@H]1C [Compound 13-10] | – | E (a pKi value of 7 or below (Ki of 100 nM or above)) | E (a pKi value of 7 or below (Ki of 100 nM or above)) | E (a pKi value of 7 or below (Ki of 100 nM or above)) | B (a pKi value between 9 and 10 (Ki between 1 nM and 0.1 nM)) | – | B (a pIC50 value between 6.7 (included) and 7.5 (IC50 between 200 nM and 32 nM)) | A (a value of 3 or above) | – | – | – | – | – | –
C=CC(=O)N1CC(COc2cc(-c3ccc(O)c(Cl)c3)cc3[nH]ncc23)C1 [Compound 3-3] | – | – | – | – | – | A (a value of 3 or above) | – | – | < 31.6 | > 100 | > 100 | > 100 | 0.1 to 1 | –
CCC1(COc2nc(-c3ccc(O)cc3)cc3[nH]ncc23)CN(C(=O)/C=C/CN(C)C)C1 [Compound 3-61] | A (a pIC50 value≥7.5 (IC50≤32 nM)) | E (a pKi value of 7 or below (Ki of 100 nM or above)) | D (a pKi value between 7 and 8 (Ki between 100 nM and 10 nM)) | E (a pKi value of 7 or below (Ki of 100 nM or above)) | A (a pKi value≥10 (Ki≤0.1 nM)) | A (a value of 3 or above) | – | – | – | – | – | – | – | –
CN(C)C/C=C/C(=O)N1CC(C(C)(C)Oc2cc(-c3ccc(O)c(F)c3)cc3[nH]ncc23)C1 [Compound 3-27] | – | – | – | – | – | A (a value of 3 or above) | – | – | 31.6 to 200 | > 100 | > 100 | > 100 | < 0.1 | –
C=CC(=O)N1C2CCC1CC(Oc1cc(-c3ccc(O)c(Cl)c3)cc3[nH]ncc13)C2 (stereo not drawn) [Compound 9-2] | – | E (a pKi value of 7 or below (Ki of 100 nM or above)) | E (a pKi value of 7 or below (Ki of 100 nM or above)) | E (a pKi value of 7 or below (Ki of 100 nM or above)) | B (a pKi value between 9 and 10 (Ki between 1 nM and 0.1 nM)) | – | A (a pIC50 value≥7.5 (IC50≤32 nM)) | A (a value of 3 or above) | – | – | – | – | – | –
C=CC(=O)N1CC(CC)(COc2nc(-c3ccc(O)c(F)c3)cc3[nH]ncc23)C1 [Compound 3-101] | A (a pIC50 value≥7.5 (IC50≤32 nM)) | E (a pKi value of 7 or below (Ki of 100 nM or above)) | D (a pKi value between 7 and 8 (Ki between 100 nM and 10 nM)) | E (a pKi value of 7 or below (Ki of 100 nM or above)) | A (a pKi value≥10 (Ki≤0.1 nM)) | A (a value of 3 or above) | – | – | – | – | – | – | – | –
C=CC(=O)N1C[C@@H](Oc2cc(-c3ccc(O)cc3)cc3[nH]ncc23)CC[C@@H]1C [Compound 12-33] | – | – | – | – | – | – | – | A (a value of 3 or above) | – | > 100 | > 100 | > 100 | 0.1 to 1 | 31.6 to 200
C=CC(=O)N1CC[C@H](Oc2nc(-c3ccc(O)c(F)c3)cc3[nH]ncc23)C1 [Compound 1-27] | – | – | – | – | – | A (a value of 3 or above) | – | – | 31.6 to 200 | > 100 | 10 to 100 | > 100 | < 0.1 | –
COC(CN(C)C/C=C/C(=O)N1CC(COc2cc(-c3ccc(O)cc3)cc3[nH]ncc23)C1)OC [Compound 3-121] | – | – | – | – | – | A (a value of 3 or above) | – | – | 31.6 to 200 | > 100 | 10 to 100 | > 100 | 0.1 to 1 | –
CN(C)C/C=C/C(=O)N1CC(OCc2cc(-c3ccc(O)c(Cl)c3)cc3[nH]ncc23)C1 [Compound 16-1] | – | E (a pKi value of 7 or below (Ki of 100 nM or above)) | E (a pKi value of 7 or below (Ki of 100 nM or above)) | E (a pKi value of 7 or below (Ki of 100 nM or above)) | A (a pKi value≥10 (Ki≤0.1 nM)) | – | B (a pIC50 value between 6.7 (included) and 7.5 (IC50 between 200 nM and 32 nM)) | A (a value of 3 or above) | – | – | – | – | – | –
C=CC(=O)N1CC(COc2cc(-c3ccc(O)c(OC)c3)cc3[nH]ncc23)C1 [Compound 3-83] | – | – | – | – | – | A (a value of 3 or above) | – | – | < 31.6 | > 100 | > 100 | > 100 | < 0.1 | –
CN(C)C/C=C/C(=O)N1CC(F)(C2(Oc3cc(-c4ccc(O)cc4)cc4[nH]ncc34)CC2)C1 [Compound 12-36] | – | – | – | – | – | – | – | A (a value of 3 or above) | – | 10 to 100 | > 100 | > 100 | < 0.1 | < 31.6
